Tested on: SARS-CoV-2
Experiment: Antiviral activity against SARS Cov-2 pseudovirions assessed as inhibition of viral entry into 293/hACE2 cells at 2 uM relative to control
Format: functional, Severe acute respiratory syndrome coronavirus 2, 293T/ACE2
Design: scale not given: the % may be the effect or the level left

Compound `CCc1ccccc1NC(=O)CSC(=O)NNC(=O)[C@H](Cc1c[nH]c2ccccc12)NC(=O)OC(C)(C)C` has an Activity of ~76%.
